# Data reported in US20050245399A1, “Pyrazole derivatives as herbicidal compositions containing them” (ISHIHARA SANGYO KAISHA, LTD., priority 2004, published 2005).
# Columns and labels:
# Type in all cases: in vivo
# [1] = test system: velvetleaf (Abutilon theophrasti), ABUTH; test: Test Example 2 post-emergence (foliage treatment) herbicidal activity, ABUTH; settings: 63 g a.i./ha
# Outline: (§1)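 A small sprayer delivered the diluted WP or EC formulation (500 L/ha water, 0.1% v/v spreader) over emerged seedlings in upland soil pots. Damage relative to untreated plants was graded visually from 0 to 100% three weeks or so later (days 20-23).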
# [2] = test system: rice (Oryza sativa L.): ORYSA; test: Test Example 1 pre-emergence herbicidal activity, ORYSA; settings: visually observed 20th to 23rd day after application
# Outline: (§2)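 Percent growth control, rated visually 20–23 d after a pre-emergence spray applied 1 d post-sowing; compound formulated as WP or EC in 500 L/ha water at a predetermined a.i. amount.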
# [3] = test system: crabgrass (Digitaria sanguinalis L.): DIGSA; test: Test Example 1 pre-emergence herbicidal activity, DIGSA; settings: visually observed 20th to 23rd day after application
# Outline: as §2
# [4] = test system: redroot pigweed (Amaranthus retroflexus L.): AMARE; test: Test Example 1 pre-emergence herbicidal activity, AMARE; settings: visually observed 20th to 23rd day after application
# Outline: as §2
# [5] = test system: velvetleaf (Abutilon theophrasti): ABUTH; test: Test Example 1 pre-emergence herbicidal activity, ABUTH; settings: visually observed 20th to 23rd day after application
# Outline: as §2
# [6] = test system: soybean (Glycine max Merr.), GLXMA; test: Test Example 2 post-emergence (foliage treatment) herbicidal activity, GLXMA; settings: 63 g a.i./ha
# Outline: as §1
# [7] = test system: rice (Oryza sativa L.: ORYSA); test: Test Example 3 water application herbicidal activity (paddy), transplanted rice ORYSA; settings: 63 g a.i./ha, water application 4th day after transplantation of 2 leaf stage rice, visually observed 21st day after application; 0 = untreated control, 100 = complete kill
# Outline: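 Compound, as diluted wettable powder or emulsifiable concentrate, was pipetted into flood water at a set active-ingredient dose. Weeds were treated at 0.5-leaf stage after sowing or tuber planting; 2-leaf rice 4 days post-transplant. Control scored visually, 0 untreated to 100 complete kill, weeds day 14, rice day 21.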
# [8] = test system: prickly sida (Sida spinosa L.): SEDSP; test: Test Example 1 pre-emergence herbicidal activity, SIDSP; settings: visually observed 20th to 23rd day after application
# Outline: as §2
# [9] = test system: barnyardgrass (Echinochiloa oryzicola: ECHOR); test: Test Example 3 water application herbicidal activity (paddy), ECHOR; settings: 63 g a.i./ha, water application under submerged condition at 0.5 leaf stage, visually observed 14th day after application; 0 = untreated control, 100 = complete kill
# Outline: (§3)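 Submerged application in flooded paddy soil (3–4 cm water); weeds treated at 0.5-leaf stage, transplanted rice 4 d after transplanting. Scored visually as % growth control: weeds at 14 d, rice at 21 d.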
# [10] = test system: wheat (Triticum aestivum L.): TRZAX; test: Test Example 1 pre-emergence herbicidal activity, TRZAX; settings: visually observed 20th to 23rd day after application
# Outline: as §2
# [11] = test system: green foxtail (Setaria viridis L.): SETVI; test: Test Example 1 pre-emergence herbicidal activity, SETVI; settings: visually observed 20th to 23rd day after application
# Outline: as §2
# [12] = test system: wheat (Triticum aestivum L.), TRZAX; test: Test Example 2 post-emergence (foliage treatment) herbicidal activity, TRZAX; settings: 63 g a.i./ha
# Outline: as §1
# [13] = test system: corn (Zea mays L.): ZEAMX; test: Test Example 1 pre-emergence herbicidal activity, ZEAMX; settings: visually observed 20th to 23rd day after application
# Outline: as §2
# [14] = test system: japanese ribbon wapato (Sagittaria pygmaea: SA GPY); test: Test Example 3 water application herbicidal activity (paddy), SAGPY; settings: 63 g a.i./ha, water application under submerged condition, tubers planted, visually observed 14th day after application; 0 = untreated control, 100 = complete kill
# Outline: as §3
# [15] = test system: soybean (Glycine max Merr.): GLXMA; test: Test Example 1 pre-emergence herbicidal activity, GLXMA; settings: visually observed 20th to 23rd day after application
# Outline: as §2
# [16] = test system: barnyardgrass (Echinochloa crus-galli L.), ECHCG; test: Test Example 2 post-emergence (foliage treatment) herbicidal activity, ECHCG; settings: 63 g a.i./ha
# Outline: (§4)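 Each species was evaluated for growth suppression by eye, 0% matching untreated and 100% meaning death, some 20 to 23 days after a single post-emergence foliar treatment applied in 500 L/ha of water carrying 0.1% (v/v) agricultural spreader.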
# [17] = test system: japanese bulrush (Scirpus juncoides: SCPJO); test: Test Example 3 water application herbicidal activity (paddy), SCPJO; settings: 63 g a.i./ha, water application under submerged condition at 0.5 leaf stage, visually observed 14th day after application; 0 = untreated control, 100 = complete kill
# Outline: as §3
# [18] = test system: rice (Oryza sativa L.), ORYSA; test: Test Example 2 post-emergence (foliage treatment) herbicidal activity, ORYSA; settings: 63 g a.i./ha
# Outline: as §4
# [19] = test system: crabgrass (Digitaria sanguinalis L.), DIGSA; test: Test Example 2 post-emergence (foliage treatment) herbicidal activity, DIGSA; settings: 63 g a.i./ha
# Outline: as §4
# [20] = test system: prickly sida (Sida spinosa L.), SIDSP; test: Test Example 2 post-emergence (foliage treatment) herbicidal activity, SIDSP; settings: 63 g a.i./ha
# Outline: as §1
# [21] = test system: corn (Zea mays L.), ZEAMX; test: Test Example 2 post-emergence (foliage treatment) herbicidal activity, ZEAMX; settings: 63 g a.i./ha
# Outline: as §1
# [22] = test system: redroot pigweed (Amaranthus retroflexus L.), AMARE; test: Test Example 2 post-emergence (foliage treatment) herbicidal activity, AMARE; settings: 63 g a.i./ha
# Outline: as §4
# [23] = test system: barnyardgrass (Echinochloa crus-galli L.): ECHCG; test: Test Example 1 pre-emergence herbicidal activity, ECHCG; settings: visually observed 20th to 23rd day after application
# Outline: as §2
# [24] = test system: green foxtail (Setaria viridis L.), SETVI; test: Test Example 2 post-emergence (foliage treatment) herbicidal activity, SETVI; settings: 63 g a.i./ha
# Outline: as §1
Compound,"growth controlling degree, ABUTH [1]",Pre-emergence Herbicidal Activity ORYSA (growth controlling degree) ([2]; Rate 63 g a.i./ha),Pre-emergence Herbicidal Activity DIGSP (growth controlling degree) ([3]; Rate 63 g a.i./ha),Pre-emergence Herbicidal Activity AMARE (growth controlling degree) ([4]; Rate 63 g a.i./ha),Pre-emergence Herbicidal Activity ABUTH (growth controlling degree) ([5]; Rate 63 g a.i./ha),"growth controlling degree, GLXMA [6]",growth controlling degrees (%) ORYSA [7],Pre-emergence Herbicidal Activity SIDSP (growth controlling degree) ([8]; Rate 63 g a.i./ha),growth controlling degrees (%) ECHOR [9],Pre-emergence Herbicidal Activity TRZAX (growth controlling degree) ([10]; Rate 63 g a.i./ha),"growth controlling degree, TRZAX [12]",growth controlling degrees (%) SAGPY [14],"growth controlling degree, ECHCO [16]",growth controlling degrees (%) SCPJO [17],"growth controlling degree, ORYSA [18]","growth controlling degree, DIGSP [19]","growth controlling degree, SIDSP [20]","growth controlling degree, ZEAMX [21]","growth controlling degree, AMARE [22]","growth controlling degree, SETVI [24]",also measured
Cn1nc(-c2c(F)cc(Cl)c(OC(F)F)c2NC(=O)C(F)(F)F)c(Cl)c1OC(F)F [Compound 1-83],100%,60%,100%,100%,80%,60%,50%,100%,100%,10%,10%,80%,100%,95%,50%,100%,100%,80%,100%,100%,Pre-emergence Herbicidal Activity SETVI (growth controlling degree) ([11]; Rate 63 g a.i./ha): 100%; Pre-emergence Herbicidal Activity ZEAMX (growth controlling degree) ([13]; Rate 63 g a.i./ha): 20%; Pre-emergence Herbicidal Activity GLXMA (growth controlling degree) ([15]; Rate 63 g a.i./ha): 60%; Pre-emergence Herbicidal Activity ECHCG (growth controlling degree) ([23]; Rate 63 g a.i./ha): 90%
COc1c(Cl)cc(F)c(-c2nn(C)c(OC(F)F)c2Cl)c1NC(=O)c1cccc(Br)c1 [Compound 1-27],100%,20%,100%,100%,70%,70%,50%,80%,100%,0%,30%,98%,100%,70%,80%,100%,70%,60%,100%,100%,Pre-emergence Herbicidal Activity SETVI (growth controlling degree) ([11]; Rate 63 g a.i./ha): 80%; Pre-emergence Herbicidal Activity ZEAMX (growth controlling degree) ([13]; Rate 63 g a.i./ha): 0%; Pre-emergence Herbicidal Activity GLXMA (growth controlling degree) ([15]; Rate 63 g a.i./ha): 20%; Pre-emergence Herbicidal Activity ECHCG (growth controlling degree) ([23]; Rate 63 g a.i./ha): 30%
COc1c(Cl)cc(F)c(-c2nn(C)c(OC(F)F)c2Cl)c1N(C(=O)CCc1ccccc1)C(=O)CCc1ccccc1 [Compound 1-18],100%,–,–,–,–,60%,30%,–,100%,–,10%,50%,70%,40%,60%,70%,100%,60%,100%,80%,Pre-emergence Herbicidal Activity ORYSA (growth controlling degree) ([2]; Rate 125 g a.i./ha): 50%; Pre-emergence Herbicidal Activity DIGSP (growth controlling degree) ([3]; Rate 125 g a.i./ha): 98%; Pre-emergence Herbicidal Activity AMARE (growth controlling degree) ([4]; Rate 125 g a.i./ha): 100%; Pre-emergence Herbicidal Activity ABUTH (growth controlling degree) ([5]; Rate 125 g a.i./ha): 40%; Pre-emergence Herbicidal Activity SIDSP (growth controlling degree) ([8]; Rate 125 g a.i./ha): 60%; Pre-emergence Herbicidal Activity TRZAX (growth controlling degree) ([10]; Rate 125 g a.i./ha): 30%; Pre-emergence Herbicidal Activity SETVI (growth controlling degree) ([11]; Rate 125 g a.i./ha): 50%; Pre-emergence Herbicidal Activity ZEAMX (growth controlling degree) ([13]; Rate 125 g a.i./ha): 0%; Pre-emergence Herbicidal Activity GLXMA (growth controlling degree) ([15]; Rate 125 g a.i./ha): 20%; Pre-emergence Herbicidal Activity ECHCG (growth controlling degree) ([23]; Rate 125 g a.i./ha): 70%
